Read-outs that look alike come from different tables or passages of the source. One block for each compound: values may come before it.
Assays:
MCF-7 cells = assay: Growth studies in vitro: estrogen-stimulated MCF-7 cell proliferation (CellTiter-Glo luminescent viability assay); type: cell-based, human; conditions: for IC50: single agent, E2 (1 nM)-stimulated MCF-7 cells, Day 6, read-out: IC50 value, inhibition of MCF-7 cell growth; for inhibition at 0.1 µM: read-out: inhibited cell proliferation
Experimental: Cell lines. MCF-7 cells were provided from Dr. A. Brodie (University of Maryland School of Medicine, Baltimore, Md.) and cultured in DMEM supplemented with 5% fetal bovine serum (FBS) and 1% penicillin/streptomycin (P/S). MCF-7arom cells were provided from Dr. S. Chen (Beckman Research Institute of the City of Hope, Duarte, Calif.) and cultured in DMEM supplemented with 5% FBS and 750 μg/ml geneticin.
Growth studies in vitro. Six days prior to plating in 96-well plates, MCF-7 cells growing in T-75 flasks (30-50% confluent) were washed extensively with phenyl red-free DPBS and transferred to estrogen-depleted medium. Estrogen-depleted medium was phenyl red-free DMEM/F-12 containing 10% heat-treated and dextran-coated charcoal-treated fetal bovine serum and 1% penicillin/streptomycin solution. Estrogen depleted media was refreshed 3 days prior to plating. On Day 0, cells were seeded (1,200 cells/well) into 96-well plates in estrogen-depleted medium and allowed to attach. On Day 1 the media was aspirated and replaced in 6-well replicates with estrogen-depleted medium supplemented with E2 (1 nM), and 4-OH Tamoxifen (Sigma Chemical Company, St Louis, Mo. in the range 10 nM-10 μM), or Fulvestrant (Tocris, Ellisville, Mo. in the range 10 nM-1.0 μM), FTI (in the range 10 nM-10 μM), and a combination of the antiestrogens and FTI. Media containing drugs was refreshed on Day 3. The effects of treatment on cell proliferation were determined on Day 6 using the CellTiter-Glo luminescent viability assay (Promega Corp., Madison, Wis.).

[1] = test system: MCF-7arom breast tumor xenografts; assay: MCF-7arom breast tumor xenograft growth in vivo, FTI plus Anastrozole; design: species or system athymic nude mice; conditions: for induction of tumor regression / tumor regression: 28 days; for inhibited tumor growth compared to vehicle-treated animals: 28 days of treatment
Experimental: (§1) Growth Studies in vivo. Female ovariectomized athymic nude mice were obtained from Charles River Laboratories (Worcester, Mass.). Androstenedione (Δ4A) pellets (25 mg and 15 mg, 90-day slow release) and 17β-estradiol (E2) pellets (0.72 mg, 60-day slow release) were from Innovative Research of America (Saratoga, Fla.). Anastrozole and Letrozole were obtained from Sequoia Research Products, Oxford, United Kingdom) and Tamoxifen was from Sigma Chemical Company.
MCF-7arom breast tumor growth was performed as described previously (Lu et al., 1999, Breast Cancer Res. Treat., 57, 183-192; Long et al., 2002, Clin Cancer Res., 8, 2378-2388) with minor modifications. To determine the effect of combined FTI plus Anastrozole on the growth of MCF-7arom breast tumor xenografts, 2.5×10^6 MCF-7arom cells were inoculated into the right flank of the animals in 100 μl of Matrigel (BD Biosciences, Bedford, Mass.). Animals had been implanted with a 25 mg, 90-day Δ4A pellet the previous day. Fourteen days after cell inoculation, the animals were grouped (n=10) for treatment with: • 1) Vehicle • 2) Anastrozole (5 mg per kg [mpk], orally [p.o.], twice a day [b.i.d.]) • 3) FTI (20 mpk, p.o., b.i.d.) • 4) FTI (40 mpk, p.o., b.i.d.) • 5) FTI (60 mpk, p.o., b.i.d.) • 6) FTI (20 mpk, p.o., b.i.d.)+Anastrozole (5 mpk, p.o., b.i.d.) • 7) FTI (40 mpk, p.o., b.i.d.)+Anastrozole (5 mpk, p.o., b.i.d.) • 8) FTI (60 mpk, p.o., b.i.d.)+Anastrozole (5 mpk, p.o., b.i.d.)
Treatment was continued for 28 days and tumor volumes were measured twice a week with calipers. Tumor volumes and animal body weights were recorded using LABCAT (Innovative Programming Associates Inc., Princeton, N.J.). Tumor volumes were calculated by the formula (w×l×h)/2.

[2] = test system: MCF-7arom breast tumor xenografts; assay: MCF-7arom breast tumor xenograft growth in vivo, FTI plus Tamoxifen; design: species or system athymic nude mice; conditions: Day 10 of treatment
Experimental: as §1
(§2) To determine the effect of combined FTI plus Tamoxifen on the growth of MCF-7arom breast tumor xenografts, 5×10^6 MCF-7arom cells were inoculated into the right flank of the animals in 100 μl of Matrigel. Animals had been implanted with a 15 mg, 90-day Δ4A pellet the previous day. Fourteen days after cell inoculation, the animals were grouped (n=10) for treatment with: • 1) Vehicle • 2) Tamoxifen (25 mpk, p.o., q.d.) • 3) FTI (20 mpk, p.o., b.i.d.) • 4) FTI (40 mpk, p.o., b.i.d.) • 5) FTI (20 mpk, p.o., b.i.d.)+Tamoxifen (25 mpk, p.o., q.d.) • 6) FTI (40 mpk, p.o., b.i.d.)+Tamoxifen (25 mpk, p.o., q.d.)
(§3) Treatment was continued for 28 days and tumor volumes were measured twice a week with calipers as described above.

[3] = test system: MCF-7 breast tumor xenografts; assay: Estrogen-stimulated MCF-7 breast tumor xenograft growth in vivo, FTI plus Tamoxifen; design: species or system athymic nude mice
Experimental: as §1
as §2, with “MCF-7 breast tumor growth was performed as described previously (Osborne et al., 1995, J. Natl Cancer Inst., 87, 746-750) with minor modifications. To” for “To”, “MCF-7” for “MCF-7arom”, “5.0×10^6 MCF-7” for “5×10^6 MCF-7arom”, “0.72” for “15”, “60-day” for “90-day Δ4A”, “grouped” for “grouped (n=10)”
as §3

[4] = test system: MCF-7arom breast tumor xenografts; assay: MCF-7arom breast tumor xenograft growth in vivo, FTI plus Letrozole; design: species or system athymic nude mice; conditions: Day 10 of treatment
Experimental: as §1
To determine the effect of combined FTI plus Letrozole on the growth of MCF-7arom breast tumor xenografts, 5×10^6 MCF-7arom cells were inoculated into the right flank of the animals in 100 μl of Matrigel. Animals had been implanted with a 15 mg, 90-day Δ4A pellet the previous day. Fourteen days after cell inoculation, the animals were grouped (n=10) for treatment with: • 1) Vehicle • 2) Letrozole (2.5 mpk, p.o., once a day [q.d.]) • 3) FTI (20 mpk, p.o., b.i.d.) • 4) FTI (40 mpk, p.o., b.i.d.) • 5) FTI (20 mpk, p.o., b.i.d.)+Letrozole (2.5 mpk, p.o., q.d.) • 6) FTI (40 mpk, p.o., b.i.d.)+Letrozole (2.5 mpk, p.o., q.d.)
as §3

Compound: CC/C(=C(\c1ccc(O)cc1)c1ccc(OCCN(C)C)cc1)c1ccccc1 [4-OH Tamoxifen, reference compound]
IC50 (MCF-7 cells): 450 nM | inhibited cell proliferation (MCF-7 cells; single-agent 4-OH Tamoxifen 1.0 μM (FIG. 1)): 55%

Compound: CC(C)(C#N)c1cc(Cn2cncn2)cc(C(C)(C)C#N)c1 [Anastrozole, reference compound]
induction of tumor regression ([1]; Anastrozole 5 mpk b.i.d.): did not induce tumor regression | inhibited tumor growth compared to vehicle-treated animals ([1]; Anastrozole 5 mpk p.o. b.i.d.): 62%

Compound: CC/C(=C(\c1ccccc1)c1ccc(OCCN(C)C)cc1)c1ccccc1 [Tamoxifen, reference compound]
inhibited tumor growth ([2]; Tamoxifen 25 mpk p.o. q.d.): 22% | inhibited tumor growth ([3]; Tamoxifen 25 mpk q.d., 14 days of treatment): 29%

IC50 (MCF-7 cells; Homo sapiens, MCF7, 144 h): 40 nM
Compound: NC(=O)N1CCC(CC(=O)N2CCC([C@H]3c4ncc(Br)cc4CCc4cc(Cl)cc(Br)c43)CC2)CC1 [FTI]
inhibition at 0.1 µM (MCF-7 cells; Homo sapiens, MCF7, single-agent FTI 0.1 μM, 4-OH Tamoxifen experiment (FIG. 1)): 56% | inhibition at 0.1 µM (MCF-7 cells; Homo sapiens, MCF7, single-agent FTI 0.1 μM, Fulvestrant experiment (FIG. 2)): 43% | induction of tumor regression ([1]; FTI 20 mpk b.i.d.): did not induce tumor regression | inhibited tumor growth compared to vehicle-treated animals ([1]; FTI 20 mpk p.o. b.i.d.): 56% | tumor regression ([1]; single-agent FTI 40 mpk b.i.d.): 16% | tumor regression ([1]; single-agent FTI 60 mpk b.i.d.): 40% | inhibited tumor growth ([4]; FTI 40 mpk p.o. b.i.d.): 16% | inhibited tumor growth ([2]; FTI 40 mpk p.o. b.i.d.): 16% | tumor regression, % of initial starting volume ([3]; single-agent FTI 40 mpk b.i.d., Day 14 of treatment): 57%

Compound: N#Cc1ccc(C(c2ccc(C#N)cc2)n2cncn2)cc1 [Letrozole]
inhibited tumor growth ([4]; Letrozole 2.5 mpk p.o. q.d.): 127% | tumor regression ([4]; Letrozole 2.5 mpk p.o. q.d.): 25%

Compound: C[C@]12CC[C@@H]3c4ccc(O)cc4C[C@@H](CCCCCCCCC[S+]([O-])CCCC(F)(F)C(F)(F)F)[C@H]3[C@@H]1CC[C@@H]2O (stereo partly shown) [Fulvestrant, reference compound]
inhibition at 0.1 µM (MCF-7 cells; Homo sapiens, MCF7, single-agent Fulvestrant 0.1 μM (FIG. 2)): 53%
